One may read the EC50 as the concentration needed to bring the measured effect to its halfway point. In general, IC50 refers to the point on the concentration scale where inhibition reaches its midpoint.

What all share (type): cell-based
The subject of experiment [1] is N87 gastric cancer cell line. In words: Cytotoxic activity of dimers, ATP luminescence or MTS cell proliferation assay. Particulars: N87 gastric cancer cells, 72 h. Here is the method:
(§1) The cytotoxic activity of dimers of this invention was tested against H226 lung cancer, 786-O renal cancer, N87 gastric cancer, and/or OVCAR3 ovarian cancer cell lines. The ability of dimers to inhibit cell proliferation can be measured by either an ATP luminescence assay or an MTS cell proliferation assay.
(§2) This is a general procedure for an ATP luminescence assay: Cells are seeded at 1×10^3 cells/well in 96-well plates for 3 h for ATP CellTiterGlo™ assays, respectively. Serial dilutions (1:3) of compounds are added to the wells. Plates are allowed to incubate for 72 h. A CellTiterGlo™ cell viability kit from Promega is used to measure ATP content of cells treated with test compounds following manufacturer's instruction. A decrease in the ATP content is a measure of decrease in cellular viability. The EC50 value—the concentration at which an agent reduces cell viability by 50% of the maximum effect—can be calculated using PRISM™ software, version 5.0 (GraphPad Software, La Jolla, Calif., USA).
(§3) The MTS cell proliferation assay was performed as follows: CellTiter 96 Aqueous Non-Radioactive Cell proliferation Kit from Promega (Madison, Wis.) is used to determine the number of viable cells in cell proliferation assay. Tumor cells are plated at certain seeding densities in sterile 384-well black clear bottom Matrix plates at 40 μL per well and incubated overnight at 37° C. in 5% CO2 before assaying. On the next day, one set of cell plates (10 plates) is used to determine time zero cell density, and 3-(4,5-dimethylthiazol-2-yl)-5-(3-carboxymethoxyphenyl)-2-(4-sulfophenyl)-2H-tetrazolium is added at 4 μL/well into 10 plates followed by incubation at 37° C. in 5% CO2 for three hours. This tetrazolium reagent is bioreduced by […] to form a formazan product which is soluble in aqueous solution. Absorbance at 490 nm is measured on an Envision reader (Perkin Elmer, Boston, Mass.). On the same day, compounds are added into remaining cell plates (T72 plates) and incubated at 37° C. in 5% CO2. After 72 hours, 4 μL MTS reagents are then added into those cell plates. The plates are further incubated at 37° C. in 5% CO2 for three hours and the absorbance values at A490 were measured on an Envision reader.
In general terms: Tetrazolium assays rely on reduction of a dye to a coloured formazan, in cell work by metabolically active cells.

Experiment [2] deals with OVCAR3 ovarian cancer cell line. The description is as above. The following applies: 72 h. Here is the method: as §1, §2, §3
Experiment [3] concerns H226 lung cancer cell line. The experiment is described as above. Particulars: 72 h. Here is the method:
as §1, §2, §3

The subject of experiment [4] is DMS 79 small-cell lung cancer cell line. In words: Activity of dimers against small-cell lung cancer cell line (Table IB). The following applies: Homo sapiens, DMS 79 small-cell lung cancer cells.
For experiment [5], the system named is H187 small-cell lung cancer cell line. The experiment is described as above. Particulars: Homo sapiens, NCI-H187, H187 small-cell lung cancer cells.
The mark [6] stands for this setting: Homo sapiens, OVCAR-3, OVCAR3 ovarian cancer cells.
[7] abbreviates: Homo sapiens, NCI-H226, H226 lung cancer cells.

Consider `COc1cc2c(cc1OCCCOc1cc3c(cc1OC)C(=O)N1Cc4ccccc4C[C@H]1C=N3)N=C[C@@H]1Cc3ccccc3CN1C2=O` [IIa-01], for which the figures for the EC50 in experiment [1] and in experiment [2] (setting [6]) were 16 pM and 150 pM, respectively.

On to `COc1cc2c(cc1OCCCCCOc1cc3c(cc1OC)C(=O)N1Cc4ccccc4C[C@H]1C=N3)N=C[C@@H]1Cc3ccccc3CN1C2=O` [IIa-02], for which the EC50 in experiment [3] (H226 lung cancer cells) lay in the range of 46 to 180 pM; in experiment [1], 49 to 150 pM; in experiment [2] (OVCAR3 ovarian cancer cells) it was 77 to 120 pM.

As to `COc1cc2c(cc1OCCCOc1cc3c(cc1OC)C(=O)N1Cc4ccccc4C[C@H]1CN3)N=C[C@@H]1Cc3ccccc3CN1C2=O` [IIa-03], the values for the EC50 in experiment [3] (H226 lung cancer cells), in experiment [1] and in experiment [2] (OVCAR3 ovarian cancer cells) were 410 pM, 460 pM and 180 pM, respectively.

As to `COc1cc2c(cc1OCCCOc1cc3c(cc1OC)C(=O)N1Cc4ccccc4C[C@H]1CN3)NC[C@@H]1Cc3ccccc3CN1C2=O` [IIa-04], the EC50 in experiment [3] (setting [7]) worked out at 8000 pM; in experiment [1], 5700 pM; in experiment [2] (setting [6]), 2600 pM.

In the case of `COc1cc2c(cc1OCc1cc(N)cc(COc3cc4c(cc3OC)C(=O)N3Cc5ccccc5C[C@H]3C=N4)c1)N=C[C@@H]1Cc3ccccc3CN1C2=O` [IIa-05, (6aS,6a′S)-3,3′-(((5-amino-1,3-phenylene)bis(methylene))bis(oxy))bis(2-methoxy-6a,7-dihydrobenzo[5,6][1,4]diazepino[1,2-b]isoquinolin-14(12H)-one)], the figures for the EC50 in experiment [3] (setting [7]), in experiment [1] and in experiment [2] (setting [6]) were 150 pM, 150 pM and 90 pM, respectively.

As for `COc1cc2c(cc1OCCCCCOc1cc3c(cc1OC)C(=O)N1Cc4cc(N)ccc4C[C@H]1C=N3)N=C[C@@H]1Cc3ccccc3CN1C2=O` [IIa-10], the EC50 was determined as 20 pM in experiment [3] (setting [7]), 30 pM in experiment [1] and 20 pM in experiment [2] (setting [6]).

For the compound `COc1cc2c(cc1OCCNCCOc1cc3c(cc1OC)C(=O)N1Cc4ccccc4C[C@H]1C=N3)N=C[C@@H]1Cc3ccccc3CN1C2=O` [IIa-16, (6aS,6a′S)-3,3′-((azanediylbis(ethane-2,1-diyl))bis(oxy))bis(2-methoxy-6a,7-dihydrobenzo[5,6][1,4]diazepino[1,2-b]isoquinolin-14(12H)-one)], in experiment [3] (setting [7]), the EC50 is 188 pM. Besides, the results for the IC50 in experiment [4] and in experiment [5] were 0.006 nM and 0.005 nM, respectively.

For the compound `COc1cc2c(cc1OCC(N)COc1cc3c(cc1OC)C(=O)N1Cc4ccccc4C[C@H]1C=N3)N=C[C@@H]1Cc3ccccc3CN1C2=O` [IIa-18], the EC50 in experiment [3] (H226 lung cancer cells) amounted to 3200 pM.

Take `COc1cc2c(cc1OCCNCCOc1cc3c(cc1OC)C(=O)N1Cc4ccccc4C[C@H]1CN3)N=C[C@@H]1Cc3ccccc3CN1C2=O` [IIa-20]: the EC50 in experiment [1] is 1300 pM.

Compound `COc1cc2c(cc1OCc1cccc(COc3cc4c(cc3OC)C(=O)N3Cc5ccccc5C[C@H]3C=N4)c1)N=C[C@@H]1Cc3ccccc3CN1C2=O` [IIa-21] had an EC50 in experiment [1] of 20 pM.

The compound `COc1cc2c(cc1OCc1cc(COc3cc4c(cc3OC)C(=O)N3Cc5ccccc5C[C@H]3C=N4)cc(N=[N+]=[N-])c1)N=C[C@@H]1Cc3ccccc3CN1C2=O` [IIa-22] registered a 50% effective concentration (EC50) in experiment [1] of 50 pM.

As for `COc1cc2c(cc1OCCCCCOc1cc3c(cc1OC)C(=O)N1Cc4ccccc4C[C@H]1C=N3)N=C[C@@H]1CCCN1C2=O` [IIb-01], the EC50 in experiment [3] (setting [7]) came to 440 pM; in experiment [1], 330 pM; in experiment [2] (setting [6]) it was 220 pM.

For `COc1ccc2c(c1)CN1C(=O)c3cc(OC)c(OCCCOc4cc5c(cc4OC)C(=O)N4C=C(c6ccc(N)cc6)C[C@H]4C=N5)cc3N=C[C@@H]1C2` [IIb-03], the results for the EC50 in experiment [3] (setting [7]), in experiment [1] and in experiment [2] (setting [6]) were 150 pM, 110 pM and 330 pM, respectively. In addition, the values for the IC50 in experiment [4] and in experiment [5] were 0.003 nM and 0.002 nM, respectively.

As for `COc1cc2c(cc1OCCCCCOc1cc3c(cc1OC)C(=O)N1c4ccncc4C[C@H]1C=N3)N=C[C@@H]1Cc3ccccc3CN1C2=O` [IIc-01], the midpoint of the response in experiment [1], the EC50, lay at 280 pM.

The record behind these values is patent US9822144B2, “Benzodiazepine dimers, conjugates thereof, and methods of making and using” (priority 2015, dated 2017).
